This note sets out measurements from US20040248887A1, “Inhibitors of cathepsin S” (IRM LLC, priority 2003, published 2004).

The target of the assay is Cathepsin S (Homo sapiens, UniProt P25774). Description: Cathepsin S inhibition, fluorogenic peptide substrate kinetic assay. It is filed as biochemical. The settings on record: Table II; Cathepsin S inhibition constant, pH5.5; read-out: Ki Cat. S. An excerpt:
“Inhibition constant”, Ki, is the dissociation constant of the enzyme-inhibitor complex, or the reciprocal of the binding affinity of the inhibitor to the enzyme. […] The inhibited rates are then fit by nonlinear regression to the following equation: [formula]
where vo is the initial rate of substrate processing in the absence of inhibitor, v; is the initial rate of substrate processing at a concentration [I] of inhibitor, Km is the steady state Michaelis constant (Fersht, A. Structure and Mechanism in Protein Science. New York, W.H. Freeman and Company, 1999), and [S] is the concentration of competitive substrate.
The assumption being made for the classical inhibition described above is that the free inhibitor concentration is equal to the total inhibitor concentration.
The inhibition constant, Ki, can be determined from the apparent inhibition constant, Ki^app, for competitive inhibitors by using the following relationship: [formula]
The optimal substrate for cathepsin S, acetyl-histidine-proline-valine-lysine-amino carbamoyl coumarin, was identified from screening a combinatorial library of fluorogenic peptide substrates (Harris, J. L., B. J. Backes, et al., Proc Natl Acad Sci USA 2000, 97(14), 7754-9). Kinetic measurements are performed in a total reaction volume of 30 μl in 384-well microtiter plates. […] The reactions are initiated by adding the substrate, acetyl-histidine-proline-valine-lysine-amino carbamoyl coumarin, to a final concentration of 50 μM. The rate of substrate hydrolysis is measured by monitoring the increase in fluorescence at an excitation wavelength of 380 nm and an emission wavelength of 450 nm that results from cleavage of the aniline bond in the substrate by the enzyme. The apparent inhibition constants for the compounds are determined from the enzyme progress curves (Kuzmic, P., K. C. Elrod, et al., Anal Biochem 2000, 286(1), 45-50) and are then used to calculate the inhibition constants for competitive inhibitors.

Sequence of Cathepsin S (P25774 115-331, species assumed): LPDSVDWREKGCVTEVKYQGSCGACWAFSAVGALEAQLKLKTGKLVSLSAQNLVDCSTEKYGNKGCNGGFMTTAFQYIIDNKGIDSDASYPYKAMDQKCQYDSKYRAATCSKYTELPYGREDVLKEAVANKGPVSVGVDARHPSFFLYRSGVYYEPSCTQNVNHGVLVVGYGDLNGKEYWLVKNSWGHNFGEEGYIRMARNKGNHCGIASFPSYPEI

As for `C[C@@H](CNc1ccc(OC(F)(F)F)cc1)NC(=O)[C@H](CC1CCCC1)NC(=O)OC1CCOCC1` [Compound 190, (S,S)-{2-Cyclopentyl-1-[1-methyl-2-(4-trifluoromethoxy-phenylamino)-ethylcarbamoyl]-ethyl}-carbamic acid tetrahydropyran-4-yl ester], the Ki – broadly, the dissociation constant of the complex between target and ligand, obtained from inhibition or displacement – is below 100 nM.

As to `O=C(N[C@@H](CC1CCCCC1)C(=O)NCCN1CCc2cc(F)ccc21)c1ccco1` [Compound 9, Furan-2-carboxylic acid (S)-{2-cyclohexyl-1-[2-(5-fluoro-2,3-dihydro-indol-1-yl)-ethylcarbamoyl]-ethyl}-amide], the Ki was below 100 nM.

Take `C[C@@H](CNc1cccc(C(=O)N(C)C)c1)NC(=O)[C@H](CC1CCCCC1)NC(=O)c1ccc(-c2cccc(F)c2)o1` [Compound 120, 5-(3-Fluoro-phenyl)-furan-2-carboxylic acid {2-cyclohexyl-1-(S)-[2-(3-dimethylcarbamoyl-phenylamino)-1-(S)-methyl-ethylcarbamoyl]-ethyl}-amide]: the Ki is below 100 nM.

With `CC(C)(C)C[C@H](NC(=O)OC(C)(C)C)C(=O)N[C@@H](CC#N)CN1CCc2cc(F)ccc21` [Compound 164, {1-(S)-[2-Cyano-1-(S)-(5-fluoro-2,3-dihydro-indol-1-ylmethyl)-ethylcarbamoyl]-3,3-dimethyl-butyl}-carbamic acid tert-butyl ester], the Ki is below 1000 nM.

Regarding `C[C@@H](CNc1cccc(OC(F)(F)F)c1)NC(=O)[C@H](CC1CCCCC1)NC(=O)c1ccc(-c2cccc(F)c2)o1` [Compound 111, 5-(3-Fluoro-phenyl)-furan-2-carboxylic acid {2-cyclohexyl-1-(S)-[1-(S)-methyl-2-(3-trifluoromethoxy-phenylamino)-ethylcarbamoyl]-ethyl}-amide], the Ki was below 100 nM.

Regarding `O=C(C[C@@H](CN1CCc2cc(F)ccc21)NC(=O)[C@H](CC1CCCCC1)NC(=O)OCc1ccccc1)OCc1ccccc1` [Compound 168, 3-(S)-(2-(S)-Benzyloxycarbonylamino-3-cyclohexyl-propionylamino)-4-(5-fluoro-2,3-dihydro-indol-1-yl)-butyric acid benzyl ester], the Ki is below 100 nM.

Regarding `O=C(NCCN1CCc2cc(F)ccc21)[C@H](CC1CCCCC1)NS(=O)(=O)c1cc(Cl)c(Cl)s1` [Compound 258, (S)-3-Cyclohexyl-2-(4,5-dichloro-thiophene-2-sulfonylamino)-N-[2-(5-fluoro-2,3-dihydro-indol-1-yl)-ethyl]-propionamide], the Ki is below 1000 nM.

In the case of `C[C@@H](CNc1ccc(OC(F)(F)F)cc1)NC(=O)[C@H](CC(C)(C)C)NC(=O)c1ccc(-c2cccc(F)c2)o1` [Compound 127, 5-(3-Fluoro-phenyl)-furan-2-carboxylic acid {3,3-dimethyl-1-(S)-[1-(S)-methyl-2-(4-trifluoromethoxy-phenylamino)-ethylcarbamoyl]-butyl}-amide], the Ki is below 100 nM.

Turning to `C[C@@H](CNc1cccc(S(C)(=O)=O)c1)NC(=O)[C@H](CC1CCCCC1)NC(=O)c1ccc(-c2cccc(F)c2)o1` [Compound 88, 5-(3-Fluoro-phenyl)-furan-2-carboxylic acid {2-cyclohexyl-1-(S)-[2-(3-methanesulfonyl-phenylamino)-1-(S)-methyl-ethylcarbamoyl]-ethyl}-amide], the Ki is below 100 nM.

On to `CS(=O)(=O)N1CCC(C(=O)N[C@@H](CC2CCCCC2)C(=O)NCCN2CCc3cc(F)ccc32)CC1` [Compound 77, 1-Methanesulfonyl-piperidine-4-carboxylic acid (S)-{2-cyclohexyl-1-[2-(5-fluoro-2,3-dihydro-indol-1-yl)-ethylcarbamoyl]-ethyl}-amide], for which the Ki was below 1000 nM.

On to `C[C@@H](C(=O)N[C@@H](CC1CCCCC1)C(=O)NCCN1CCc2cc(F)ccc21)c1ccccc1` [Compound 70, N-{2-cyclohexyl-1-(S)-[2-(5-fluoro-2,3-dihydro-indol-1-yl)-ethylcarbamoyl]-ethyl}-2-(R)-phenyl-propionamide], for which the Ki was below 100 nM.

For `COc1cccc(C(=O)N[C@@H](CCC2CCCCC2)C(=O)N[C@@H](CCCCN)CN2CCc3cc(F)ccc32)c1` [Compound 167, N-{1-(S)-[5-Amino-1-(S)-(5-fluoro-2,3-dihydro-indol-1-ylmethyl)-pentylcarbamoyl]-3-cyclohexyl-propyl}-3-methoxy-benzamide], the Ki is below 100 nM.

As to `COc1cccc(C(=O)N[C@@H](CC(C)(C)C)C(=O)N[C@@H](CC#N)CN2CCc3cc(F)ccc32)c1` [Compound 165, N-{1-(S)-[2-Cyano-1-(S)-(5-fluoro-2,3-dihydro-indol-1-ylmethyl)-ethylcarbamoyl]-3,3-dimethyl-butyl}-3-methoxy-benzamide], the Ki was below 100 nM.

With `C[C@@H](CNc1ccc(OC(F)(F)F)cc1)NC(=O)[C@H](CC1CCCCC1)NC(=O)c1nc(-c2cccc(F)c2)no1` [Compound 108, 3-(3-Fluoro-phenyl)-[1,2,4]oxadiazole-5-carboxylic acid {2-cyclohexyl-1-(S)-[1-(S)-methyl-2-(4-trifluoromethoxy-phenylamino)-ethylcarbamoyl]-ethyl}-amide], the Ki was below 100 nM.

With `C[C@@H](CNc1ccc(OC(F)F)cc1)NC(=O)[C@H](CC1CCCCC1)NC(=O)c1ccc(-c2ccc(F)cc2)o1` [Compound 104, 5-(4-Fluoro-phenyl)-furan-2-carboxylic acid {2-cyclohexyl-1-(S)-[2-(4-difluoromethoxy-phenylamino)-1-(S)-methyl-ethylcarbamoyl]-ethyl}-amide], the inhibition constant Ki is below 100 nM.

Regarding `C[C@@H](CN1CC(C)(C)c2cc(F)ccc21)NC(=O)[C@H](CC1CCCCC1)NC(=O)OC1CCOCC1` [Compound 215, (S,S)-{2-Cyclohexyl-1-[2-(5-fluoro-3,3-dimethyl-2,3-dihydro-indol-1-yl)-1-methyl-ethylcarbamoyl]-ethyl}-carbamic acid tetrahydro-pyran-4-yl ester], the Ki was below 100 nM.

Take `COc1cc(C)c(NC[C@H](C)NC(=O)[C@H](CC2CCCCC2)NC(=O)c2ccc(-c3cccc(F)c3)o2)c(C)c1` [Compound 114, 5-(3-Fluoro-phenyl)-furan-2-carboxylic acid {2-cyclohexyl-1-(S)-[2-(4-methoxy-2,6-dimethyl-phenylamino)-1-(S)-methyl-ethylcarbamoyl]-ethyl}-amide]: the Ki is below 100 nM.

Regarding `O=C(N[C@@H](CC1CCCCC1)C(=O)NCCN1CCc2cc(F)ccc21)c1ccc(-c2ccccc2)s1` [Compound 82, 5-Phenyl-thiophene-2-carboxylic acid (S)-{2-cyclohexyl-1-[2-(5-fluoro-2,3-dihydro-indol-1-yl)-ethylcarbamoyl]-ethyl}-amide], the Ki was below 100 nM.

Regarding `O=C(NCCN1CCc2cc(F)ccc21)[C@H](CC1CCCCC1)NS(=O)(=O)c1ccc(OC(F)(F)F)cc1` [Compound 230, (S)-3-Cyclohexyl-N-[2-(5-fluoro-2,3-dihydro-indol-1-yl)-ethyl]-2-(4-trifluoromethoxy-benzenesulfonylamino)-propionamide], the Ki is below 1000 nM.

Take `Cn1cncc1S(=O)(=O)N[C@@H](CC1CCCCC1)C(=O)NCCN1CCc2cc(F)ccc21` [Compound 232, (S)-3-Cyclohexyl-N-[2-(5-fluoro-2,3-dihydro-indol-1-yl)-ethyl]-2-(3-methyl-3H-imidazole-4-sulfonylamino)-propionamide]: the Ki is below 10000 nM.
